Assays:
Format in all cases: cell-based
human TLR7 = biological target: T1, human TLR7 (Homo sapiens, UniProt Q9NYK1); experiment: TLR7 inhibition reporter assay (HEK-Blue cells, SEAP reporter, gardiquimod stimulation); conditions: HEK-Blue cells overexpressing human TLR7, SEAP reporter, gardiquimod 7.5 μM; read-out: TLR7 IC50
T1 construct: host or cells: HEK-Blue cells
T1 sequence (Q9NYK1 27-1049): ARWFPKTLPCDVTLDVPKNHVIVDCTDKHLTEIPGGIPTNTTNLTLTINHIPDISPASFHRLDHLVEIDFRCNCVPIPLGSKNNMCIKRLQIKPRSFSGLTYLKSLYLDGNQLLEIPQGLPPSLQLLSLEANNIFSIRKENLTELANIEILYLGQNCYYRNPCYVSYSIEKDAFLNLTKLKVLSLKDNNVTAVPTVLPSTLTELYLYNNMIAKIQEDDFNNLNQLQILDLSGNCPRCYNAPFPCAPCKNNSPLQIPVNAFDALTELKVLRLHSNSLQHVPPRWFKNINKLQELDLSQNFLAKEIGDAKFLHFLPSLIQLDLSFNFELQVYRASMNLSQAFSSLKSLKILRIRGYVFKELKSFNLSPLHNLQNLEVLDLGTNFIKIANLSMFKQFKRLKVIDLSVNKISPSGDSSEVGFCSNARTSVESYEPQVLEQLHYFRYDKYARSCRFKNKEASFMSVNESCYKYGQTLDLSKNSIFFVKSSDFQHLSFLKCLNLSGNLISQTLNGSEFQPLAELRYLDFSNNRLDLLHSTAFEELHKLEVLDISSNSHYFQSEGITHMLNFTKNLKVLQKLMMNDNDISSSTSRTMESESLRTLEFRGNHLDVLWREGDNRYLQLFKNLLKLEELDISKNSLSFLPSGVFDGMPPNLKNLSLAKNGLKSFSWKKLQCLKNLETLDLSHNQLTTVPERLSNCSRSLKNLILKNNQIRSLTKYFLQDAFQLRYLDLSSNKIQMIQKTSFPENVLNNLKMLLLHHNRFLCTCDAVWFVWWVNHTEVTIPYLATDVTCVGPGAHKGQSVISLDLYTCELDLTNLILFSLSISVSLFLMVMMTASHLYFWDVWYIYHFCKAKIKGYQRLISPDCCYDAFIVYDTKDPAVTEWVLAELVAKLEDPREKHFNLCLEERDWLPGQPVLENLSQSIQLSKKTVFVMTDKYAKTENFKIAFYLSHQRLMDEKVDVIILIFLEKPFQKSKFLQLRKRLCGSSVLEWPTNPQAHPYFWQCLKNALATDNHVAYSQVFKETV
In short: (§1)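 Dose–response from 0.05 nM to 50 μM was run in HEK-Blue human TLR7, TLR8 and TLR9 reporter cells. After 30 min at room temperature with compound, ligand was added (TLR7 gardiquimod 7.5 μM; TLR8 R848 15.9 μM; TLR9 ODN2006 5 nM) and SEAP measured next day, at 22 h.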

human TLR9 = biological target: T2, human TLR9 (Homo sapiens, UniProt Q9NR96); experiment: TLR9 inhibition reporter assay (HEK-Blue cells, SEAP reporter, ODN2006 stimulation); conditions: HEK-Blue cells overexpressing human TLR9, SEAP reporter, ODN2006 5 nM
T2 construct: host or cells: HEK-Blue cells
T2 sequence (Q9NR96 26-1032): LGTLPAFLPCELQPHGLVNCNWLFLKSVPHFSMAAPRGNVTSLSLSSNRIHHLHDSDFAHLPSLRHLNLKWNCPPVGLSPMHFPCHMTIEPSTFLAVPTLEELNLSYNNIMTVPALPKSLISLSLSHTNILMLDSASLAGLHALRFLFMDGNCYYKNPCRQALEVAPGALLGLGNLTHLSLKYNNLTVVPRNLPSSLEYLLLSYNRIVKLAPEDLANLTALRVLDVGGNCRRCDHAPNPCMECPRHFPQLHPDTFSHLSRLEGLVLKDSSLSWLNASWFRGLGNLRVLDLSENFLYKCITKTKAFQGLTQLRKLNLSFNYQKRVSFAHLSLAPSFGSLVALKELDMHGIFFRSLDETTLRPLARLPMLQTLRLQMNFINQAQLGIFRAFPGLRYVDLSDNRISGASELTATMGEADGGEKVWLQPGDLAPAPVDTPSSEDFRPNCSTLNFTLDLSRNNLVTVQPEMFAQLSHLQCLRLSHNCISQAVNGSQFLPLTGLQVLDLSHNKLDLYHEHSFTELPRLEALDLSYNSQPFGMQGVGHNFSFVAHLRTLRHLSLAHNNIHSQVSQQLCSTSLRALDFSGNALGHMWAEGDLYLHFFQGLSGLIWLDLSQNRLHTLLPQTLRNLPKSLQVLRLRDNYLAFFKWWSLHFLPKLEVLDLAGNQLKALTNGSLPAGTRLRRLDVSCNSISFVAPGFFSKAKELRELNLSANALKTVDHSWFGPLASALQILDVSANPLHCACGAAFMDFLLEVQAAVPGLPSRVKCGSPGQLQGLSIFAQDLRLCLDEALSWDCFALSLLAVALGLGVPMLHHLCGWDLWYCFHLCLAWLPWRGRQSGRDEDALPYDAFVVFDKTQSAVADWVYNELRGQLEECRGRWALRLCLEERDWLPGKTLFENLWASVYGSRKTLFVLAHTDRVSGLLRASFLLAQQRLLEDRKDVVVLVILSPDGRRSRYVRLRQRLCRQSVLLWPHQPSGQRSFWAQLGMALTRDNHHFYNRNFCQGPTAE
In short: as §1

human TLR8 = biological target: T3, human TLR8 (Homo sapiens, UniProt Q9NR97); experiment: TLR8 inhibition reporter assay (HEK-Blue cells, SEAP reporter, R848 stimulation); conditions: HEK-Blue cells overexpressing human TLR8, SEAP reporter, R848 15.9 μM; read-out: TLR8 IC50
T3 construct: host or cells: HEK-Blue cells
T3 sequence (Q9NR97 27-1041): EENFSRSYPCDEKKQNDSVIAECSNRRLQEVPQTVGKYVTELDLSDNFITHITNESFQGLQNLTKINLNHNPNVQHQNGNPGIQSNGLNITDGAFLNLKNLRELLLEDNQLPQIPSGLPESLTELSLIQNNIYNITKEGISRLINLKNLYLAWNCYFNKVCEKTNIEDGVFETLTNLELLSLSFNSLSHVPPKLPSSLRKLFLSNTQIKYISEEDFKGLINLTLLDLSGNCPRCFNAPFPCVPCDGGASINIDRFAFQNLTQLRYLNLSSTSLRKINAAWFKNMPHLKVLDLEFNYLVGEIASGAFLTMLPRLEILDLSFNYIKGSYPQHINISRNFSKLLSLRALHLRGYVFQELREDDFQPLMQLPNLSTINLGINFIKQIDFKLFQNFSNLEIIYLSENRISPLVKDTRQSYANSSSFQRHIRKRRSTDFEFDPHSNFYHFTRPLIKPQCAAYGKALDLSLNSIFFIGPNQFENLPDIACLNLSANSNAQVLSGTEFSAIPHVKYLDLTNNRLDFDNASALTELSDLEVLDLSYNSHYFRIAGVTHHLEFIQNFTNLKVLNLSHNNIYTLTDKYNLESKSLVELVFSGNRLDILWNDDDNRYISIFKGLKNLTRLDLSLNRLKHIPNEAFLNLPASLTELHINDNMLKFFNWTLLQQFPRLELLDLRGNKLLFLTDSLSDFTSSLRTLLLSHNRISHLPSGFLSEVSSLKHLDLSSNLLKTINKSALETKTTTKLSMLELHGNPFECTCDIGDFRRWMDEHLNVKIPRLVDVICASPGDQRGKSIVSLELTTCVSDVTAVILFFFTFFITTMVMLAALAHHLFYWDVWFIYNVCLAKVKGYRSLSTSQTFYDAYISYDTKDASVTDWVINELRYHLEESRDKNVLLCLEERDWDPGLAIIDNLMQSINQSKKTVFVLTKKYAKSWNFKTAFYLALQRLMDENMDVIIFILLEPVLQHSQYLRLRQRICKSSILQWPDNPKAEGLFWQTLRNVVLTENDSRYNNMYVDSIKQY
In short: as §1

Row | IC50 (human TLR7) | IC50 (human TLR9) | IC50 (human TLR8) | SMILES
1 | 2.56 nM | 5490 nM | 3.94 nM | Cc1c(-c2[nH]c3sc(C4CCC(N5CC(O)C5)CC4)nc3c2C(C)C)cn2ncnc2c1C (single isomer, unassigned) [Example 225, 1-(4-(5-(7,8-dimethyl-[1,2,4]triazolo[1,5-a]pyridin-6-yl)-6-isopropyl-4H-pyrrolo[3,2-d]thiazol-2-yl)cyclohexyl)azetidin-3-ol]
2 | 90.1 nM | 18800 nM | 5.67 nM | Cc1cc2ncnn2cc1-c1[nH]c2sc(C3CCC(N4CCCOCC4)CC3)nc2c1C(C)C (single isomer, unassigned) [Example 147, 4-(4-(6-isopropyl-5-(7-methyl-[1,2,4]triazolo[1,5-a]pyridin-6-yl)-4H-pyrrolo[3,2-d]thiazol-2-yl)cyclohexyl)-1,4-oxazepane]
3 | 4.54 nM | 6300 nM | 2.8 nM | Cc1c(-c2[nH]c3sc(C(=O)N4CCC(N(C)C)CC4)nc3c2C(C)C)cn2ncnc2c1C [Example 376, (5-(7,8-dimethyl-[1,2,4]triazolo[1,5-a]pyridin-6-yl)-6-isopropyl-4H-pyrrolo[3,2-d]thiazol-2-yl)(4-(dimethylamino)piperidin-1-yl)methanone]
4 | 0.96 nM | 4560 nM | 1.94 nM | CCc1c(-c2cc(OC)c3ncnn3c2)[nH]c2sc(C3CCC(NC4COC4)CC3)nc12 (single isomer, unassigned) [Example 271, N-(4-(6-ethyl-5-(8-methoxy-[1,2,4]triazolo[1,5-a]pyridin-6-yl)-4H-pyrrolo[3,2-d]thiazol-2-yl)cyclohexyl) oxetan-3-amine]
5 | 2.99 nM | 19000 nM | 6.77 nM | Cc1c(-c2[nH]c3sc(C4CCNCC4)nc3c2C(C)C)cn(C)c(=O)c1C [Example 42, 5-(6-isopropyl-2-(piperidin-4-yl)-4H-pyrrolo[3,2-d]thiazol-5-yl)-1,3,4-trimethylpyridin-2(1H)-one]
6 | 1.69 nM | 42800 nM | 4.36 nM | Cc1cc(-c2[nH]c3sc(C4CCC(N5CC6(COC6)C5)CC4)nc3c2C(C)C)cn2ncnc12 (single isomer, unassigned) [Example 136, 6-(4-(6-isopropyl-5-(8-methyl-[1,2,4]triazolo[1,5-a]pyridin-6-yl)-4H-pyrrolo[3,2-d]thiazol-2-yl)cyclohexyl)-2-oxa-6-azaspiro[3.3]heptane]
7 | 3.54 nM | 5280 nM | 3.7 nM | CC(C)c1c(-c2cn(C)c3ncccc23)[nH]c2sc(C3CCC(N4CC5(COC5)C4)CC3)nc12 (single isomer, unassigned) [Example 180, 6-(4-(6-isopropyl-5-(1-methyl-1H-pyrrolo[2,3-b]pyridin-3-yl)-4H-pyrrolo[3,2-d]thiazol-2-yl)cyclohexyl)-2-oxa-6-azaspiro[3.3]heptane]
8 | 0.92 nM | 10100 nM | 0.39 nM | Cc1c(-c2[nH]c3sc(C4CCC(NC5CCOCC5)CC4)nc3c2C(C)C)cn2ncnc2c1C (single isomer, unassigned) [Example 200, N-(4-(5-(7,8-dimethyl-[1,2,4]triazolo[1,5-a]pyridin-6-yl)-6-isopropyl-4H-pyrrolo[3,2-d]thiazol-2-yl)cyclohexyl)tetrahydro-2H-pyran-4-amine]
9 | 0.88 nM | 383 nM | 0.87 nM | COc1cc(-c2[nH]c3sc(C4CCC(NC5CCN(C(C)C)CC5)CC4)nc3c2C(C)C)cn2ncnc12 (single isomer, unassigned) [Example 166, 1-isopropyl-N-(4-(6-isopropyl-5-(8-methoxy-[1,2,4]triazolo[1,5-a]pyridin-6-yl)-4H-pyrrolo[3,2-d]thiazol-2-yl)cyclohexyl)piperidin-4-amine]
10 | 0.12 nM | 2980 nM | 1.37 nM | COc1cc(-c2[nH]c3sc(C4CCC(N5CCCC5)CC4)nc3c2C(C)C)cn2ncnc12 (single isomer, unassigned) [Example 98, 6-isopropyl-5-(8-methoxy-[1,2,4]triazolo[1,5-a]pyridin-6-yl)-2-(4-(pyrrolidin-1-yl)cyclohexyl)-4H-pyrrolo[3,2-d]thiazole]
11 | 13.7 nM | 20900 nM | 31.6 nM | Cc1cc2ncnn2cc1-c1[nH]c2sc(C3CCC(NC4COC4)CC3)nc2c1C(C)C (single isomer, unassigned) [Example 152, N-(4-(6-isopropyl-5-(7-methyl-[1,2,4]triazolo[1,5-a]pyridin-6-yl)-4H-pyrrolo[3,2-d]thiazol-2-yl)cyclohexyl)oxetan-3-amine]
12 | 0.57 nM | 2830 nM | 0.39 nM | COC1CN(C2CCC(c3nc4c(C(C)C)c(-c5cn6ncnc6cc5C)[nH]c4s3)CC2)C1 (single isomer, unassigned) [Example 150, 6-isopropyl-2-(4-(3-methoxyazetidin-1-yl)cyclohexyl)-5-(7-methyl-[1,2,4]triazolo[1,5-a]pyridin-6-yl)-4H-pyrrolo[3,2-d]thiazole]
